For data set [1] the following is noted: Table 9; cited from earlier work.
Data set [2] in a line: Physicochemical characterization of lipid microsuspensions (pH, viscosity, osmolality, particle size). As to conditions: Table 9, lipid microsuspension containing the drug. An excerpt: The diameter of a particle, such as a microparticle of mTOR inhibitor in oil and cyclodextrin/lipid complexes, can correspond to the D50 diameter of the particle. Diameter D50 is also known as the median diameter or the medium value of the particle size distribution. Diameter D50 corresponds to the value of the particle diameter at 50% in the cumulative distribution. For example, if D50 is 5 μm, then 50% of the particles in the sample are larger than 5 μm, and 50% smaller than 5 μm. Diameter D50 is usually used to represent the particle size of a group of particles.
The diameter and/or size of a particle can be measured according to any method known to those of ordinary skill in the art. For example, the diameter D50 is measured by laser diffraction particle size analysis. […] In particular, persons of ordinary skill in this field know that the physical properties (e.g. particle size, diameter, average diameter, mean particle size, etc.) are typically evaluated/measured using such limited, typical known techniques.
In specific embodiments, the particle size is measured by laser diffraction particle size analysis according to Pharm. […]
Following is a general procedure for preparation of a non-sterile lipid microsuspension at laboratory scale and for a total batch size of 100 g:
First, appropriate quantity of castor oil containing the dissolved drug-substance (i.e., everolimus) is transferred into a glass container. Second, under stirring with a magnetic stirrer aqueous α-cyclodextrin solution is added to the container. Third, aqueous solution containing EDTA and glycerol is added. Fourth, aqueous solution of Kolliphor HS15 is added. Mixing is continued for about 10 minutes before the stirring bar is removed and the suspension formed mixed with a high-shear homogenizer probe (Ultra-Turrax® T25 homogenizer, IKA-Werke, Germany, with probe IKA-S-25N-18G) operated at 8,000 RPM for about 10 minutes. […] The pH is adjusted to 5.3±0.1 with concentrated hydrochloric acid solution and/or sodium hydroxide solution. Finally, if needed, purified water is added to adjust the final weight of the sample to 100%.
The mixture obtained was homogenized for 10 minutes at 12,000 rpm using Ultra-Turrax® high shear homogenizer with S25N-18G probe at 12,000 rpm for 10 minutes. […] The lipid microsuspension formed was stirred by magnetic stirrer for 30 minutes at room temperature. Finally, the pH was adjusted by addition of hydrochloric acid and/or sodium hydroxide. […]

For data set [3] the following is noted: cited from earlier work; for chemical stability of derivative: sirolimus derivatives.
The conditions of data set [4]: from the microemulsion; cited from earlier work.
For data set [5] the following is noted: room temperature; cited from earlier work.
A short description of data set [6]: Phase-solubility of everolimus in aqueous cyclodextrin solutions. It counts as physicochemical. As to conditions: pure aqueous cyclodextrin solutions, 25 °C. As to the method: Everolimus was added to each cyclodextrin solution in excess, the samples were continuously agitated on a magnetic stirrer for 24 hours.

Consider seven molecules from patent US20260364003A1, “EYE DROP MICROSUSPENSIONS OF MTOR INHIBITORS” (OCULIS OPERATIONS SARL, priority 2022, published 2026).

On to `C[C@@H]1C[C@H]2[C@@H]3CCC4=CC(=O)C=C[C@]4(C)[C@@]3(F)[C@@H](O)C[C@]2(C)[C@@]1(O)C(=O)CO` [Dexamethasone, dexamethasone], for which the “Drug LogP” value in data set [1] is recorded as 1.9. Further, in data set [2], the Osmolality is 297 mOsmol/kg, the “Particle size Dx(10)” value amounted to 1.4 μm, the “Particle size Dx(50)” value turned out to be 4.6 μm and the “Particle size Dx(90)” value worked out at 16 μm. Further, in data set [2], the “Viscosity at 15 rpm” value is listed as 17.7 cP and the pH is recorded as 6.4.
With `CCOC(=O)O[C@]1(C(=O)OCCl)CC[C@H]2[C@@H]3CCC4=CC(=O)C=C[C@]4(C)[C@H]3[C@@H](O)C[C@@]21C` [Loteprednol etabonate, loteprednol etabonate], in data set [1], the “Drug LogP” value is listed as 3.9. In data set [2], the Osmolality is on record as 282 mOsmol/kg, the “Particle size Dx(10)” value is 1.5 μm, the “Particle size Dx(50)” value amounted to 6.2 μm and the “Particle size Dx(90)” value was found to be 24 μm. Moreover, in data set [2], the “Viscosity at 15 rpm” value came to 16.1 cP and the pH is reported as 6.5.
Regarding `CO[C@H]1C[C@@H]2CC[C@@H](C)[C@@](O)(O2)C(=O)C(=O)N2CCCC[C@H]2C(=O)O[C@H]([C@H](C)C[C@@H]2CC[C@@H](O)[C@H](OC)C2)CC(=O)[C@H](C)/C=C(\C)[C@@H](O)[C@@H](OC)C(=O)[C@H](C)C[C@H](C)/C=C/C=C/C=C/1C` [Sirolimus, sirolimus], the “stability in microemulsion eye drops” value in data set [3] (microemulsion eye drops containing about 25% water) was “stable”. Also, the “Drug LogP” value in data set [1] is on record as 6.0. Moreover, in data set [2], the Osmolality amounted to 309 mOsmol/kg, the “Particle size Dx(10)” value amounted to 1.5 μm, the “Particle size Dx(50)” value came out at 5.7 μm and the “Particle size Dx(90)” value is listed as 25 μm. For the same molecule, in data set [2], the “Viscosity at 15 rpm” value was 16.5 cP and the pH is listed as 5.9. For the same molecule, the topical bioavailability result in data set [4] is “very low”.
On to `C=CC[C@@H]1/C=C(\C)C[C@H](C)C[C@H](OC)[C@H]2O[C@@](O)(C(=O)C(=O)N3CCCC[C@H]3C(=O)O[C@H](/C(C)=C/[C@@H]3CC[C@@H](O)[C@H](OC)C3)[C@H](C)[C@@H](O)CC1=O)[C@H](C)C[C@@H]2OC` [Tacrolimus, tacrolimus], for which, in data set [2], the Osmolality is listed as 304 mOsmol/kg, the “Particle size Dx(10)” value is given as 1.5 μm, the “Particle size Dx(50)” value was determined as 5.3 μm and the “Particle size Dx(90)” value came out at 22 μm. In data set [2], the “Viscosity at 15 rpm” value was 15.7 cP and the pH came out at 5.0.
For the molecule `CO[C@H]1C[C@@H]2CC[C@@H](C)[C@@](O)(O2)C(=O)C(=O)N2CCCC[C@H]2C(=O)O[C@H]([C@H](C)C[C@@H]2CC[C@@H](OC(=O)C(C)(CO)CO)[C@H](OC)C2)CC(=O)[C@H](C)/C=C(\C)[C@@H](O)[C@@H](OC)C(=O)[C@H](C)C[C@H](C)/C=C/C=C/C=C/1C` [Temsirolimus, 42-[3-hydroxy-2-(hydroxymethyl)-2-methylpropanoate]-rapamycin], in data set [3], the “chemical stability of derivative” value is “do not improve the chemical stability”. In addition, the solubility in water entry in data set [5] was “about 7 mg/mL”.
Take `CO[C@H]1C[C@@H]2CC[C@@H](C)[C@@](O)(O2)C(=O)C(=O)N2CCCC[C@H]2C(=O)O[C@H]([C@H](C)C[C@@H]2CC[C@@H](OP(C)(C)=O)[C@H](OC)C2)CC(=O)[C@H](C)/C=C(\C)[C@@H](O)[C@@H](OC)C(=O)[C@H](C)C[C@H](C)/C=C/C=C/C=C/1C` [deforolimus, 42-(dimethylphosphinate)-rapamycin]: the “chemical stability of derivative” value in data set [3] is on record as “do not improve the chemical stability”. Besides, the solubility in water result in data set [5] was “about 7 mg/mL”.
Consider `OC[C@H]1O[C@@H]2O[C@H]3[C@H](O)[C@@H](O)[C@@H](O[C@H]4[C@H](O)[C@@H](O)[C@@H](O[C@H]5[C@H](O)[C@@H](O)[C@@H](O[C@H]6[C@H](O)[C@@H](O)[C@@H](O[C@H]7[C@H](O)[C@@H](O)[C@@H](O[C@H]1[C@H](O)[C@H]2O)O[C@@H]7CO)O[C@@H]6CO)O[C@@H]5CO)O[C@@H]4CO)O[C@@H]3CO` [α-cyclodextrin], for which, in data set [6], the affinity for everolimus entry was “lowest affinity”.
